Like-named read-outs stand apart in the source and are kept apart here.
Experiments:
Type in all cases: biochemical
[1] = target: T1, DPP4 (Homo sapiens, UniProt P27487); assay: biochemical
T1 construct: purchased Proteros Biostructures GmbH, Germany
Method: (§1) Enzyme activity of DPP4, DPP8, DPP9 (Proteros Biostructures GmbH, Germany) and PREP (Sigma Aldrich, USA) was determined by measuring the initial velocity of AMC release from the fluorogenic substrate GP-AMC (Sigma Aldrich, USA) using a Tecan Spark® 10 M multimode microplate reader (Tecan Group Ltd., Switzerland) in activity buffer (20 mM HEPES/KOH pH 7.3, 110 mM potassium acetate, 2 mM Mg acetate, 0.5 mM EGTA, 0.02% Tween 20, supplemented with 1 mM DTT) and a final volume of 20 μL for maximal 60 min at 30 °C. Prior to activity measurement, 10 nM enzyme was incubated for 45 min at 30 °C and gentle shaking with the inhibitor compounds in concentrations ranging from 0 to 100 μM. The compounds were dissolved in DMSO and diluted in activity buffer (final DMSO concentration: 1%). […] IC50 values were calculated using Graph-Pad Prism v10.2.3 using the equation: [Inhibitor] vs. response—Variable slope (four parameters). All measurements were performed in triplicates and error bars represent standard errors of the fit.

[2] = target: T2, DPP8 (Homo sapiens, UniProt Q6V1X1); assay: biochemical
T2 construct: purchased Proteros Biostructures GmbH, Germany
Method: as §1

[3] = target: T1, DPP4; settings: DPP4, n=3
Method: To calculate the reaction rate of covalent bond formation between DPP proteins and inhibitor, kinact, KI and kapp was determined as previously described[30],[51]. […] Enzyme activity was measured for a maximum of 120 min at 30 °C, and fluorescence intensities were then plotted against time. Data was fitted to the following equation: Y=(vi/kobs)*(1−exp(−kobs*X)) using Graph-Pad Prism v10.2.3. The obtained pseudo-first-order rate constant was used to determine the maximum enzyme inhibition rate (kinact) and binding affinity (KI) by fitting the plot of kobs against inhibitor concentration to the following equation: Y=kinact/1+(KI/[I]) . The efficiency of covalent bond formation (kapp) was calculated by the ratio of kinact/KI. All measurements were performed in triplicates and error bars represent standard errors of the fit.

[4] = target: T2, DPP8; assay: Time-dependent DPP8 inhibition kinetics (kobs, KI, kinact, kapp); settings: for kobs: n=3
Method: (§2) To calculate the reaction rate of covalent bond formation between DPP proteins and inhibitor, kinact, KI and kapp was determined as previously described[30],[51]. Therefore, 250 µM GP-AMC was added simultaneously with a serial dilution of the inhibitor to 10 nM enzyme. Enzyme activity was measured for a maximum of 120 min at 30 °C, and fluorescence intensities were then plotted against time. Data was fitted to the following equation: Y=(vi/kobs)*(1−exp(−kobs*X)) using Graph-Pad Prism v10.2.3. The obtained pseudo-first-order rate constant was used to determine the maximum enzyme inhibition rate (kinact) and binding affinity (KI) by fitting the plot of kobs against inhibitor concentration to the following equation: Y=kinact/1+(KI/[I]) . The efficiency of covalent bond formation (kapp) was calculated by the ratio of kinact/KI. All measurements were performed in triplicates and error bars represent standard errors of the fit.

[5] = target: T3, DPP9 (Homo sapiens, UniProt Q86TI2); assay: biochemical; set-up: purchased Proteros Biostructures GmbH, Germany
Method: as §1

[6] = target: T3, DPP9; assay: Time-dependent DPP9 inhibition kinetics (kobs, KI, kinact, kapp); set-up: purchased Proteros Biostructures GmbH, Germany; settings: DPP9, n=3
Method: as §2

T1 sequence (P27487 whole entry): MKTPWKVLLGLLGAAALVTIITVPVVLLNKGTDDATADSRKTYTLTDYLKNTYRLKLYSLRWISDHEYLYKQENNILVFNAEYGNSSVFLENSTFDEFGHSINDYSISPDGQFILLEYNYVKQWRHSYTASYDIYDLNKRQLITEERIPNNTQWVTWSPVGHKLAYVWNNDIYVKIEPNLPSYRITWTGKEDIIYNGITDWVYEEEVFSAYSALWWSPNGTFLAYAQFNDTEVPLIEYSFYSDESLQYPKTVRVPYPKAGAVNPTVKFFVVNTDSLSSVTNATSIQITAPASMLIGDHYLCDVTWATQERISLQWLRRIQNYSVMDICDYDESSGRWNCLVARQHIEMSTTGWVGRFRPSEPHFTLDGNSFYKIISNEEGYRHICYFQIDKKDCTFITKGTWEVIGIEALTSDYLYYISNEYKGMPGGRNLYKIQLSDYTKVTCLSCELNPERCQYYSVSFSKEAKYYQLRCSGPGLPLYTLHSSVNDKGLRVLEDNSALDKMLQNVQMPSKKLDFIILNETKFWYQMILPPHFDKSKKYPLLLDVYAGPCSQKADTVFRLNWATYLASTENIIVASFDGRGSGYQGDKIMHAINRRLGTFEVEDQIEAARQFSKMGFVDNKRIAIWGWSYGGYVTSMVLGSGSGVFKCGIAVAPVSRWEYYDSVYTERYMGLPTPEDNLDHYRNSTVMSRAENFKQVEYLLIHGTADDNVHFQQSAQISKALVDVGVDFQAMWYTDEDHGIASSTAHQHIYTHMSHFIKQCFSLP
T2 sequence (Q6V1X1 whole entry): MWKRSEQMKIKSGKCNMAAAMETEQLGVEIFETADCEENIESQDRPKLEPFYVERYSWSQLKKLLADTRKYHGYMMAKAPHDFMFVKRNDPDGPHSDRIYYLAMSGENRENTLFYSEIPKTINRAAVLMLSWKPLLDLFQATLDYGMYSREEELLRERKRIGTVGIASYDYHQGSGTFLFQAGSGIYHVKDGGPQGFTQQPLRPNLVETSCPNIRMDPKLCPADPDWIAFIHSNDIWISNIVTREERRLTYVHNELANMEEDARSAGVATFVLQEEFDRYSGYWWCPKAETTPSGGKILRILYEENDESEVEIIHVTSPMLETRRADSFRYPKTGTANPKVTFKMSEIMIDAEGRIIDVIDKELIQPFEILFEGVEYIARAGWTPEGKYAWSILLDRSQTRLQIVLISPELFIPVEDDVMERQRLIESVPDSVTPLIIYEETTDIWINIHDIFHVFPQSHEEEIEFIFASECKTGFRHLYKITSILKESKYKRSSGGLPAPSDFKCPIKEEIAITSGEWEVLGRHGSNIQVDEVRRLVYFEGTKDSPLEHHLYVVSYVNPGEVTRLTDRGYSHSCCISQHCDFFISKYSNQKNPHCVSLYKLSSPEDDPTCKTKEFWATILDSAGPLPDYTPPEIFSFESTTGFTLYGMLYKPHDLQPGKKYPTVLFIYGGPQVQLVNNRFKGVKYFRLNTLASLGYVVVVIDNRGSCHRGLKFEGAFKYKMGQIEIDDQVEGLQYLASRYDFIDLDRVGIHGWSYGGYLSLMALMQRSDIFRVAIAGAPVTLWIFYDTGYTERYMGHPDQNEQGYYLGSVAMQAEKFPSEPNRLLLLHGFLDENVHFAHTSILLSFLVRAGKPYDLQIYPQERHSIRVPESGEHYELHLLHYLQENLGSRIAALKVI
T3 sequence (Q86TI2 whole entry): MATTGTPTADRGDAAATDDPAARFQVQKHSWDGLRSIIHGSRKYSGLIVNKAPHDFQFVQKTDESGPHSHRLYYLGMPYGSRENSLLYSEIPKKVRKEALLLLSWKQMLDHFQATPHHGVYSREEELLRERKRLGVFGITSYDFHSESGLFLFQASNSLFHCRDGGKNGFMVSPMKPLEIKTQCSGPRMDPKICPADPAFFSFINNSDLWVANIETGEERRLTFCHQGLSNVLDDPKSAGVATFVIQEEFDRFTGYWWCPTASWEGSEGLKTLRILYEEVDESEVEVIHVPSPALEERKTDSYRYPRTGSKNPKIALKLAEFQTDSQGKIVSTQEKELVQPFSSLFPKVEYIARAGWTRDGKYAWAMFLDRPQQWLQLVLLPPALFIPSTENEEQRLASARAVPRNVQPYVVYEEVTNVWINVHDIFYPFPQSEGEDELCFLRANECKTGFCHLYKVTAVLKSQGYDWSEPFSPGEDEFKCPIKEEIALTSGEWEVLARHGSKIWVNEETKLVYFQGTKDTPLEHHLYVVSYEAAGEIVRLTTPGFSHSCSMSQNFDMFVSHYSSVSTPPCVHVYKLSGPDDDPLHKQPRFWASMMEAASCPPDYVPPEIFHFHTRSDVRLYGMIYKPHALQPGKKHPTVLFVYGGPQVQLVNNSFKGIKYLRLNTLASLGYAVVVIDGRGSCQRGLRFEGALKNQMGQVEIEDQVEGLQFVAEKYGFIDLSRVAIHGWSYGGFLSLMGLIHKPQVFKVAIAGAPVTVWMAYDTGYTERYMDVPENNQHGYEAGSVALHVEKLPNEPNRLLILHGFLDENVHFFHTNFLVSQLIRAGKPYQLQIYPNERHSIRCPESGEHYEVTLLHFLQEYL

## CCCCCCP(=O)(OCC)N1CCC[C@H](N)C1=O (some centres unmarked) [Compound 5]
[1]; IC50 DPP4, GP-AMC 250 µM, 10 nM enzyme, 45 min pre-incubation at 30 °C
  IC50: 46.7 µM
[1]; read-out: DPP4 activity [%], c 1562.5 nM, replicates
  remaining activity at 1.5625 µM: 101%
[1]; read-out: DPP4 activity [%], c 3125 nM, replicates
  remaining activity at 3.125 µM: 103%
[1]; read-out: DPP4 activity [%], c 6250 nM, replicates
  remaining activity at 6.25 µM: 105%
[1]; read-out: DPP4 activity [%], c 25000 nM, replicates
  remaining activity at 25 µM: 79.6%
[1]; read-out: DPP4 activity [%], c 50000 nM, replicates
  remaining activity at 50 µM: 44.3%
[1]; read-out: DPP4 activity [%], c 100000 nM, replicates
  remaining activity at 100 µM: 23.3%
[2]
  IC50: 13.7 µM
[2]; read-out: DPP8 activity [%], c 1562.5 nM, replicates
  remaining activity at 1.5625 µM: 94.2%
[2]; read-out: DPP8 activity [%], c 3125 nM, replicates
  remaining activity at 3.125 µM: 84.3%
[2]; read-out: DPP8 activity [%], c 6250 nM, replicates
  remaining activity at 6.25 µM: 64.1%
[2]; read-out: DPP8 activity [%], c 15625 nM, replicates
  remaining activity at 15.625 µM: 42.1%
[2]; read-out: DPP8 activity [%], c 25000 nM, replicates
  remaining activity at 25 µM: 28.4%
[2]; read-out: DPP8 activity [%], c 31250 nM, replicates
  remaining activity at 31.25 µM: 19.4%
[2]; read-out: DPP8 activity [%], c 50000 nM, replicates
  remaining activity at 50 µM: 13.9%
[2]; read-out: DPP8 activity [%], c 62500 nM, replicates
  remaining activity at 62.5 µM: 4.38%
[2]; read-out: DPP8 activity [%], c 100000 nM, replicates
  remaining activity at 100 µM: 5.19%
[3]; c 25000 nM
  kobs: 0.001878 s⁻¹
[3]; c 50000 nM
  kobs: 0.001819 s⁻¹
[3]; c 100000 nM
  kobs: 0.001824 s⁻¹
[4]; DPP8
  kapp: 36.00 M⁻¹ s⁻¹
  kinact best fit: 0.0004148 s⁻¹
[4]; DPP8, c 1562.5 nM
  kobs: 9.14e-05 s⁻¹
[4]; DPP8, c 6250 nM
  kobs: 0.000151 s⁻¹
[4]; DPP8, c 25000 nM
  kobs: 0.000235 s⁻¹
[4]; DPP8, c 50000 nM
  kobs: 0.00037 s⁻¹
[4]; ratio kinact/KI
  kapp DPP8: 36 M⁻¹ s⁻¹
[4]; read-out: KI DPP8, irreversible inhibition, fit of kobs vs inhibitor concentration
  KI (inactivation): 11.5 µM
[4]; read-out: KI best fit, DPP8
  KI (inactivation): 11.5 µM
[4]; read-out: KI best fit, DPP8, fit of kobs vs inhibitor concentration
  KI (inactivation): 11.5 µM
[4]; read-out: kinact DPP8, irreversible inhibition, fit of kobs vs inhibitor concentration
  kinact: 0.00042 ± 7e-05 s⁻¹
[4]; read-out: kinact best fit, DPP8
  kinact: 0.000415 s⁻¹
[5]
  IC50: 42.7 µM
[5]; read-out: DPP9 activity [%], c 1562.5 nM, replicates
  remaining activity at 1.5625 µM: 97%
[5]; read-out: DPP9 activity [%], c 3125 nM, replicates
  remaining activity at 3.125 µM: 96.9%
[5]; read-out: DPP9 activity [%], c 6250 nM, replicates
  remaining activity at 6.25 µM: 89.1%
[5]; read-out: DPP9 activity [%], c 15625 nM, replicates
  remaining activity at 15.625 µM: 77.4%
[5]; read-out: DPP9 activity [%], c 25000 nM, replicates
  remaining activity at 25 µM: 65.7%
[5]; read-out: DPP9 activity [%], c 31250 nM, replicates
  remaining activity at 31.25 µM: 60.7%
[5]; read-out: DPP9 activity [%], c 50000 nM, replicates
  remaining activity at 50 µM: 45.5%
[5]; read-out: DPP9 activity [%], c 62500 nM, replicates
  remaining activity at 62.5 µM: 38.8%
[5]; read-out: DPP9 activity [%], c 100000 nM, replicates
  remaining activity at 100 µM: 22.1%
[5]; read-out: DPP9 activity [%], c 250000 nM, replicates
  remaining activity at 250 µM: 5.77%
[5]; read-out: DPP9 activity [%], c 500000 nM, replicates
  remaining activity at 500 µM: 1.09%
[6]; c 25000 nM
  kobs: 0.000207 s⁻¹
[6]; c 50000 nM
  kobs: 0.000227 s⁻¹
[6]; c 100000 nM
  kobs: 0.000318 s⁻¹

Source: publication PMC11968843, “Sulphostin-inspired N-phosphonopiperidones as selective covalent DPP8 and DPP9 inhibitors” (Nature Communications, 2025)
